Reference: patent US7531646B2, “β-D-ribosidase activity indicators with a chromogenic substrate” (priority 2001, dated 2009)
Where a name gives a salt, the structure may show the parent alone.

Key:
Assay in all cases: Substrate hydrolysis on Columbia agar
Format in all cases: cell-based
Vibrio vulnificus = conditions: 300 mg/l, 18 hours
Streptococcus sanguis = Streptococcus sanguis NCTC 7863; 300 mg/l; 18 hours
Listeria seerigeri = Listeria seerigeri PHLS wild; 300 mg/l; 18 hours
[1] = test system: Staphylococcus haemolyticus; conditions: 300 mg/l, 18 hours
Aeromonas hydrophila = test system: Aeromonas hydrophila; set-up: key to the marks not given beside the values; conditions: Aeromonas hydrophila NCTC 8049; 300 mg/l; 18 hours
P. rettgeri = P. rettgeri NCTC 7475; 300 mg/l; 18 hours
[2] = test system: Haemolytic streptococcus A; conditions: 300 mg/l, 18 hours
Salmonella panama = Salmonella panama SAX 58; 300 mg/l; 18 hours
Enterococcus faecium = conditions: 300 mg/l, 18 hours
A. baumanii = A. baumanii ATCC 19606; 300 mg/l; 18 hours
Enterococcus faecalis = conditions: 300 mg/l, 18 hours
Vibrio furnissii = Vibrio furnissii NCTC 11218; 300 mg/l; 18 hours
P. penneri = P. penneri PPE 1; 300 mg/l; 18 hours
Serratia spp. = conditions: 300 mg/l, 18 hours
[3] = test system: Arcanobacterium haemolyticus; conditions: Arcanobacterium haemolyticus NCTC 52; 300 mg/l; 18 hours
Bacillus cereus = Bacillus cereus NCTC; 300 mg/l; 18 hours
Streptococcus crista = Streptococcus crista NCTC 12479; 300 mg/l; 18 hours
[4] = test system: Haemolytic streptococcus G; conditions: 300 mg/l, 18 hours
Salmonella typhimurium = Salmonella typhimurium NCTC 74; 300 mg/l; 18 hours
Vibrio hollisae = Vibrio hollisae NCTC 11640; 300 mg/l; 18 hours
Streptococcus milleri = Streptococcus milleri wild; 300 mg/l; 18 hours
C. freundii = conditions: 300 mg/l, 18 hours
Streptococcus mitis = Streptococcus mitis NCTC 12261; 300 mg/l; 18 hours
Vibrio fluvialis = test system: Vibrio fluvialis; set-up: key to the marks not given beside the values; conditions: Vibrio fluvialis NCTC 11327; 300 mg/l; 18 hours
P. vulgaris = conditions: 300 mg/l, 18 hours
Streptococcus salivarius = Streptococcus salivarius NCTC 8618; 300 mg/l; 18 hours
[5] = test system: Streptococcus constellatus; conditions: Streptococcus constellatus NCTC 11325; 300 mg/l; 18 hours
Vibrio anguillarum = Vibrio anguillarum NCTC 12159; 300 mg/l; 18 hours
Y. enterocolitica = conditions: 300 mg/l, 18 hours
P. mirabilis = conditions: 300 mg/l, 18 hours
[6] = test system: Streptococcus vestibularis; conditions: Streptococcus vestibularis NCTC 12166; 300 mg/l; 18 hours
[7] = Staphylococcus haemolyticus RB 66
[8] = Staphylococcus haemolyticus RB 67
[9] = Staphylococcus haemolyticus RB 68
[10] = Staphylococcus haemolyticus RB 69
[11] = Staphylococcus haemolyticus RB 70
[12] = Enterococcus faecium 121285 - wild ′99

3′,4′-dihydroxyflavone-4′-β-D-glucopyranoside sodium salt [DHF-glucoside]
+: Hydrolysis by Gram negative bacteria (Vibrio vulnificus; Vibrio vulnificus NCTC 11066) | Hydrolysis by Gram negative bacteria (Vibrio vulnificus; Vibrio vulnificus NCTC 11067) | Hydrolysis by Gram negative bacteria (P. rettgeri) | Hydrolysis by Gram negative bacteria (Serratia spp.; Serratia spp. SEX 1) | Hydrolysis by Gram negative bacteria (Serratia spp.; Serratia spp. SEX 2) | Hydrolysis by Gram positive organisms (Bacillus cereus) | Hydrolysis by Gram negative bacteria (C. freundii; C. freundii CFR 1) | Hydrolysis by Gram negative bacteria (C. freundii; C. freundii CFR 4) | Hydrolysis by Gram negative bacteria (C. freundii; C. freundii NCTC 9750)
++: Hydrolysis by Gram positive organisms (Listeria seerigeri) | Hydrolysis by Gram negative bacteria (Aeromonas hydrophila) | Hydrolysis by Gram positive organisms (Enterococcus faecium; Enterococcus faecium 1) | Hydrolysis by Gram positive organisms (Enterococcus faecium; Enterococcus faecium 2) | Hydrolysis by Gram positive organisms (Enterococcus faecium; Enterococcus faecium 3) | Hydrolysis by Gram positive organisms (Enterococcus faecium; Enterococcus faecium 4) | Hydrolysis by Gram positive organisms (Enterococcus faecium; Enterococcus faecium 5) | Hydrolysis by Gram positive organisms (Enterococcus faecium; Enterococcus faecium 6) | Hydrolysis by Gram positive organisms (Enterococcus faecium; Enterococcus faecium 7) | Hydrolysis by Gram positive organisms (Enterococcus faecium; [12]) | Hydrolysis by Gram positive organisms (Enterococcus faecalis; Enterococcus faecalis 1) | Hydrolysis by Gram positive organisms (Enterococcus faecalis; Enterococcus faecalis 2) | Hydrolysis by Gram positive organisms (Enterococcus faecalis; Enterococcus faecalis 3) | Hydrolysis by Gram positive organisms (Enterococcus faecalis; Enterococcus faecalis 4) | Hydrolysis by Gram positive organisms (Enterococcus faecalis; Enterococcus faecalis 5) | Hydrolysis by Gram positive organisms (Enterococcus faecalis; Enterococcus faecalis 6) | Hydrolysis by Gram positive organisms (Enterococcus faecalis; Enterococcus faecalis 7) | Hydrolysis by Gram negative bacteria (Vibrio fluvialis) | Hydrolysis by Gram positive organisms (Streptococcus salivarius)
−: Hydrolysis by Gram positive organisms (Streptococcus sanguis) | Hydrolysis by Gram positive organisms [1, 7] | Hydrolysis by Gram positive organisms [1, 8] | Hydrolysis by Gram positive organisms [1, 9] | Hydrolysis by Gram positive organisms [1, 10] | Hydrolysis by Gram positive organisms [1, 11] | Hydrolysis by Gram positive organisms ([2]; Haemolytic streptococcus A 1) | Hydrolysis by Gram positive organisms ([2]; Haemolytic streptococcus A 2) | Hydrolysis by Gram positive organisms ([2]; Haemolytic streptococcus A 3) | Hydrolysis by Gram negative bacteria (Salmonella panama) | Hydrolysis by Gram negative bacteria (A. baumanii) | Hydrolysis by Gram negative bacteria (Vibrio furnissii) | Hydrolysis by Gram negative bacteria (P. penneri) | Hydrolysis by Gram positive organisms [3] | Hydrolysis by Gram positive organisms (Streptococcus crista) | Hydrolysis by Gram positive organisms ([4]; Haemolytic streptococcus G 1) | Hydrolysis by Gram positive organisms ([4]; Haemolytic streptococcus G 2) | Hydrolysis by Gram positive organisms ([4]; Haemolytic streptococcus G 3) | Hydrolysis by Gram negative bacteria (Salmonella typhimurium) | Hydrolysis by Gram negative bacteria (Vibrio hollisae) | Hydrolysis by Gram positive organisms (Streptococcus milleri) | Hydrolysis by Gram negative bacteria (C. freundii; C. freundii CFR 2) | Hydrolysis by Gram negative bacteria (C. freundii; C. freundii CFR 3) | Hydrolysis by Gram positive organisms (Streptococcus mitis) | Hydrolysis by Gram negative bacteria (P. vulgaris; P. vulgaris PVU 2) | Hydrolysis by Gram negative bacteria (P. vulgaris; P. vulgaris PVU 4) | Hydrolysis by Gram negative bacteria (P. vulgaris; P. vulgaris PVU 5) | Hydrolysis by Gram positive organisms [5] | Hydrolysis by Gram negative bacteria (Vibrio anguillarum) | Hydrolysis by Gram negative bacteria (Y. enterocolitica; Y. enterocolitica NCTC 10460) | Hydrolysis by Gram negative bacteria (Y. enterocolitica; Y. enterocolitica NCTC 11176) | Hydrolysis by Gram negative bacteria (Y. enterocolitica; Y. enterocolitica NCTC 11177) | Hydrolysis by Gram negative bacteria (Y. enterocolitica; Y. enterocolitica NCTC 11600) | Hydrolysis by Gram negative bacteria (P. mirabilis; P. mirabilis NCTC 10975) | Hydrolysis by Gram negative bacteria (P. mirabilis; P. mirabilis PMI 1) | Hydrolysis by Gram negative bacteria (P. mirabilis; P. mirabilis PMI 2) | Hydrolysis by Gram positive organisms [6]

O=c1cc(-c2ccc(OC3OC(CO)C(O)C3O)c(O)c2)oc2ccccc12 [DHF-riboside, 3′,4′-dihydroxyflavone-4′-β-D-ribofuranoside Sodium Salt]
+: Hydrolysis by Gram positive organisms [1, 7] | Hydrolysis by Gram positive organisms [1, 8] | Hydrolysis by Gram positive organisms [1, 9] | Hydrolysis by Gram positive organisms [1, 10] | Hydrolysis by Gram positive organisms [1, 11] | Hydrolysis by Gram negative bacteria (P. rettgeri) | Hydrolysis by Gram positive organisms (Enterococcus faecium; Enterococcus faecium 4) | Hydrolysis by Gram positive organisms (Enterococcus faecium; Enterococcus faecium 6) | Hydrolysis by Gram positive organisms (Enterococcus faecalis; Enterococcus faecalis 2) | Hydrolysis by Gram positive organisms (Enterococcus faecalis; Enterococcus faecalis 3) | Hydrolysis by Gram positive organisms (Enterococcus faecalis; Enterococcus faecalis 4) | Hydrolysis by Gram positive organisms (Enterococcus faecalis; Enterococcus faecalis 5) | Hydrolysis by Gram positive organisms (Enterococcus faecalis; Enterococcus faecalis 6) | Hydrolysis by Gram positive organisms [3] | Hydrolysis by Gram positive organisms ([4]; Haemolytic streptococcus G 3)
−: Hydrolysis by Gram negative bacteria (Vibrio vulnificus; Vibrio vulnificus NCTC 11066) | Hydrolysis by Gram negative bacteria (Vibrio vulnificus; Vibrio vulnificus NCTC 11067) | Hydrolysis by Gram positive organisms (Streptococcus sanguis) | Hydrolysis by Gram positive organisms (Listeria seerigeri) | Hydrolysis by Gram positive organisms ([2]; Haemolytic streptococcus A 1) | Hydrolysis by Gram positive organisms ([2]; Haemolytic streptococcus A 2) | Hydrolysis by Gram positive organisms ([2]; Haemolytic streptococcus A 3) | Hydrolysis by Gram positive organisms (Enterococcus faecium; Enterococcus faecium 1) | Hydrolysis by Gram positive organisms (Enterococcus faecium; Enterococcus faecium 2) | Hydrolysis by Gram positive organisms (Enterococcus faecium; Enterococcus faecium 3) | Hydrolysis by Gram positive organisms (Enterococcus faecium; Enterococcus faecium 5) | Hydrolysis by Gram positive organisms (Enterococcus faecium; Enterococcus faecium 7) | Hydrolysis by Gram positive organisms (Enterococcus faecium; [12]) | Hydrolysis by Gram negative bacteria (A. baumanii) | Hydrolysis by Gram positive organisms (Enterococcus faecalis; Enterococcus faecalis 1) | Hydrolysis by Gram positive organisms (Enterococcus faecalis; Enterococcus faecalis 7) | Hydrolysis by Gram negative bacteria (Vibrio furnissii) | Hydrolysis by Gram negative bacteria (P. penneri) | Hydrolysis by Gram positive organisms (Bacillus cereus) | Hydrolysis by Gram positive organisms (Streptococcus crista) | Hydrolysis by Gram positive organisms ([4]; Haemolytic streptococcus G 1) | Hydrolysis by Gram positive organisms ([4]; Haemolytic streptococcus G 2) | Hydrolysis by Gram negative bacteria (Vibrio hollisae) | Hydrolysis by Gram positive organisms (Streptococcus milleri) | Hydrolysis by Gram positive organisms (Streptococcus mitis) | Hydrolysis by Gram negative bacteria (P. vulgaris; P. vulgaris PVU 2) | Hydrolysis by Gram negative bacteria (P. vulgaris; P. vulgaris PVU 4) | Hydrolysis by Gram negative bacteria (P. vulgaris; P. vulgaris PVU 5) | Hydrolysis by Gram positive organisms (Streptococcus salivarius) | Hydrolysis by Gram positive organisms [5] | Hydrolysis by Gram negative bacteria (Vibrio anguillarum) | Hydrolysis by Gram negative bacteria (Y. enterocolitica; Y. enterocolitica NCTC 10460) | Hydrolysis by Gram negative bacteria (Y. enterocolitica; Y. enterocolitica NCTC 11176) | Hydrolysis by Gram negative bacteria (Y. enterocolitica; Y. enterocolitica NCTC 11177) | Hydrolysis by Gram negative bacteria (Y. enterocolitica; Y. enterocolitica NCTC 11600) | Hydrolysis by Gram negative bacteria (P. mirabilis; P. mirabilis NCTC 10975) | Hydrolysis by Gram negative bacteria (P. mirabilis; P. mirabilis PMI 1) | Hydrolysis by Gram negative bacteria (P. mirabilis; P. mirabilis PMI 2) | Hydrolysis by Gram positive organisms [6]
++: Hydrolysis by Gram negative bacteria (Aeromonas hydrophila) | Hydrolysis by Gram negative bacteria (Salmonella panama) | Hydrolysis by Gram negative bacteria (Serratia spp.; Serratia spp. SEX 1) | Hydrolysis by Gram negative bacteria (Serratia spp.; Serratia spp. SEX 2) | Hydrolysis by Gram negative bacteria (Serratia spp.; Serratia spp. SEX 3) | Hydrolysis by Gram negative bacteria (Serratia spp.; Serratia spp. SEX 4) | Hydrolysis by Gram negative bacteria (Salmonella typhimurium) | Hydrolysis by Gram negative bacteria (C. freundii; C. freundii CFR 1) | Hydrolysis by Gram negative bacteria (C. freundii; C. freundii CFR 2) | Hydrolysis by Gram negative bacteria (C. freundii; C. freundii CFR 3) | Hydrolysis by Gram negative bacteria (C. freundii; C. freundii CFR 4) | Hydrolysis by Gram negative bacteria (C. freundii; C. freundii NCTC 9750) | Hydrolysis by Gram negative bacteria (Vibrio fluvialis)
